# In patent US3980794A, “Method for promoting growth of poultry with 3-(5-nitro-2-imidazolyl)pyrazoles” (Eli Lilly and Company, priority 1975, dated 1976):
# Like-named read-outs stand apart in the source and are kept apart here.
# How the values were obtained:
# Type in all cases: cell-based
# [1] = system: Fusobacterium symbiosum 1470; experiment: Susceptibility of anaerobic bacteria, agar dilution; conditions: read-out: 24 Hr. Minimum Inhibitory Concentration
# [2] = system: Propionibacterium acnes 79; experiment: as above; conditions: read-out: 24 Hr. Minimum Inhibitory Concentration
# [3] = system: Bacteroides fragilis sp. thetaiotaomicron 1438; experiment: as above; conditions: 24 h, read-out: 24 Hr. Minimum Inhibitory Concentration
# [4] = system: Clostridium innocuum 1373; experiment: as above; conditions: read-out: 24 Hr. Minimum Inhibitory Concentration
# Actinomyces bovis 13684 = experiment: as above; conditions: read-out: 24 Hr. Minimum Inhibitory Concentration
# [5] = system: Bacteroides fragilis sp. fragilis 1877; experiment: as above; conditions: 24 h, read-out: 24 Hr. Minimum Inhibitory Concentration
# [6] = system: Veillonella alcalescens 1; experiment: as above; conditions: read-out: 24 Hr. Minimum Inhibitory Concentration
# [7] = system: Propionibacterium acnes 44; experiment: as above; conditions: Cutibacterium acnes, 24 h; Propionibacterium acnes 44; read-out: 24 Hr. Minimum Inhibitory Concentration
# [8] = system: Fusobacterium necrophorum 13859; experiment: as above; conditions: read-out: 24 Hr. Minimum Inhibitory Concentration
# [9] = system: Eubacterium aerofaciens 1235; experiment: as above; conditions: read-out: 24 Hr. Minimum Inhibitory Concentration
# [10] = system: Peptococcus anaerobius 1428; experiment: as above; conditions: 24 h; Peptococcus anaerobius 1428; read-out: 24 Hr. Minimum Inhibitory Concentration
# [11] = system: Clostridium septicum bovine; experiment: as above; conditions: 24 h, read-out: 24 Hr. Minimum Inhibitory Concentration
# Description: (§1) The susceptibility of anaerobic bacteria, both gram positive and gram negative, to a representative number of the novel compounds of this application was determined using the agar dilution method. The bacteria used were isolated from patients hospitalized at the Indiana University Medical Center. The isolates were identified in the anaerobe laboratory of the Medical Center by the criteria established by Dowell et al., Laboratory Methods in Anaerobic Bacteriology. Public Health Serv. Publ. No. 1803 (1968) [Center for Disease Control, Atlanta, Ga.]; and by Smith et al., The Pathogenic Anaerobic Bacteria, pages 96-136 (1968) [Charles C. Thomas, Publisher, Springfield, Ill.]. All the organisms were maintained in chopped meat glucose medium (Scott Labs) at room temperature.
# (§2) The method used for the agar dilution tests was based on the studies of Sutter et al., Antimicrob. Ag. Chemother. 3, 188-193 (1973). The strains of anaerobic bacteria were grown in 16 × 120 mm. tubes for 16 to 18 hours in Thioglycolate medium without indicator--135C (Becton, Dickinson and Co.), to which was added 5 mcg. of hemin per milliliter prior to autoclaving, plus 1 mg. of sodium bicarbonate and 0.1 mcg. of filter-sterilized menadione per milliliter after autoclaving. The growth tubes for the bacteria Veillonella alcalescens were additionally supplemented with 5 mg. of sodium lactate per milliliter. The strains were adjusted to the turbidity of the No. 1 McFarland standard in Thioglycolate medium without indicator--135C containing an additional 0.13 percent Bacto-agar (Difco). Each strain was then applied to the surface of the petri plate (100 mm. × 15 mm.) by means of a replicator.
# (§3) For the agar dilution studies, two-fold dilutions of the test compounds were prepared in deionized water to which was then added laked sheep blood and filter-sterilized menadione so the concentrations after the agar dilution were 5 percent and 10 mcg./ml. respectively. An equal volume of double strength Brucella agar (Becton, Dickinson and Co.) was mixed with each dilution in a water bath held at 50°C. and then poured onto the petri plates.
# (§4) All of the procedures were done inside a plastic glove box, except for the incubation of the growth tubes and the pouring of the plates. After the plates hardened, they were put inside the glove box for a minimum of two hours before they were inoculated. Generally, the glove box procedures of Aranki et al., Applied Microbiology 17, 568-576 (1969), were followed, but the following modifications were used. Dry materials were introduced into the glove box by evacuating the lock to 28 inches of mercury and filling once with nitrogen gas, followed by evacuating in the same manner and filling with an 80 percent nitrogen plus 10 percent CO2 plus 10 percent hydrogen gas mixture. Liquid media and agar plates were introduced into the glove box by evacuating the lock to 10 inches of mercury and filling with gas four times. The nitrogen gas was used to fill the lock for the first two cycles of evacuation, with the gas mixture described above used for the final two fillings.
# (§5) All the plates were incubated at 37°C. in Gas Pak jars (Becton, Dickinson and Co.) containing palladium-coated alumina catalysts (reactivated after each use). The results of the agar dilution tests were read after about 24 hours of incubation. The minimum inhibitory concentration (MIC) was recorded as the lowest concentration of test compound at which there was no growth.
# (§6) The results of these in vitro tests are recorded in Charts 11 and 12 which follow. The test compounds are identified in the same manner as in the previous experiments. The antibiotics cephalothin and erythromycin were also run simultaneously with the novel compounds of this application, for comparison purposes, and the results are included in Charts 11 and 12 below.
# [12] = system: Clostridium septicum 1128; experiment: as above; conditions: 24 h, read-out: 24 Hr. Minimum Inhibitory Concentration
# Description: as §1, §2, §3, §4, §5, §6
# Clostridium ramosum 1313 = experiment: as above; conditions: read-out: 24 Hr. Minimum Inhibitory Concentration
# [13] = system: Bacteroides fragilis sp. fragilis 1936B; experiment: as above; conditions: 24 h; Bacteroides fragilis sp. fragilis 1936B; read-out: 24 Hr. Minimum Inhibitory Concentration
# [14] = system: Bacteroides fragilis sp. vulgatus 1211; experiment: as above; conditions: 24 h, read-out: 24 Hr. Minimum Inhibitory Concentration
# [15] = system: Clostridium perfringens 81; experiment: microbe, parasite or virus in culture; conditions: Clostridium perfringens, 81, 24 h, read-out: 24 Hr. Minimum Inhibitory Concentration
# [16] = system: Bacteroides fragilis sp. vulgatus 1563; experiment: Susceptibility of anaerobic bacteria, agar dilution; conditions: 24 h, read-out: 24 Hr. Minimum Inhibitory Concentration
# [17] = system: Peptostreptococcus intermedius 1264; experiment: as above; conditions: 24 h; Peptostreptococcus intermedius 1264; read-out: 24 Hr. Minimum Inhibitory Concentration
# [18] = 24 h, Fusobacterium symbiosum 1470
# [19] = Cutibacterium acnes, 24 h, Propionibacterium acnes 79
# [20] = Bacteroides fragilis sp. thetaiotaomicron 1438
# [21] = 24 h, Clostridium innocuum 1373
# [22] = Bacteroides fragilis sp. fragilis 1877
# [23] = Veillonella parvula, 24 h, Veillonella alcalescens 1
# [24] = 24 h, Fusobacterium necrophorum 13859
# [25] = Collinsella aerofaciens, 24 h, Eubacterium aerofaciens 1235
# [26] = Thomasclavelia ramosa, 24 h, Clostridium ramosum 1313
# [27] = Bacteroides fragilis sp. vulgatus 1211
# [28] = Bacteroides fragilis sp. vulgatus 1563
# [29] = [Clostridium] innocuum, 1373, 24 h
# [30] = Fusobacterium necrophorum, 13859, 24 h
# [31] = Collinsella aerofaciens, 1235, 24 h
smiles,measurement,setting,value
"CCNc1cc(-c2ncc([N+](=O)[O-])n2C)nn1C [Compound 11A, 5-(ethylamino)-1-methyl-3-(1-methyl-5-nitro-2-imidazolyl)pyrazole]",MIC,[1]; [18],< 0.03 µg/mL
same,MIC,[2]; [19],< 0.03 µg/mL
same,MIC,[3]; [20],0.06 µg/mL
same,MIC,[4]; [21],0.125 µg/mL
same,MIC,"Actinomyces bovis 13684; 24 h, Actinomyces bovis 13684",2 µg/mL
same,MIC,[5]; [22],0.06 µg/mL
same,MIC,[6]; [23],1 µg/mL
same,MIC,[7],8 µg/mL
same,MIC,[8]; [24],< 0.03 µg/mL
same,MIC,[9]; [25],< 0.03 µg/mL
same,MIC,[10],1 µg/mL
same,MIC,[11],0.06 µg/mL
same,MIC,[12],0.06 µg/mL
same,MIC,Clostridium ramosum 1313; [26],0.5 µg/mL
same,MIC,[13],2 µg/mL
same,MIC,[14]; [27],< 0.03 µg/mL
same,MIC,[15],0.03 µg/mL
same,MIC,[16]; [28],< 0.03 µg/mL
same,MIC,[17],8 µg/mL
"Cn1c([N+](=O)[O-])cnc1-c1nn(CCCl)c(N)c1C#N [Compound 15, 5-Amino-1-(2-chloroethyl)-3-(1-methyl-5-nitro-2-imidazolyl)pyrazole-4-carbonitrile]",MIC,"[1]; Fusobacterium, 1470, 24 h",< 0.125 µg/mL
same,MIC,"[2]; Cutibacterium acnes, 79, 24 h",< 0.125 µg/mL
same,MIC,[3]; Bacteroides fragilis,< 0.125 µg/mL
same,MIC,[4]; [29],< 0.125 µg/mL
same,MIC,"Actinomyces bovis 13684; 24 h, Actinomyces bovis 13684",1 µg/mL
same,MIC,[5]; Bacteroides fragilis,< 0.125 µg/mL
same,MIC,"[6]; Veillonella parvula, 1, 24 h",< 0.125 µg/mL
same,MIC,[7],> 32 µg/mL
same,MIC,[8]; [30],< 0.125 µg/mL
same,MIC,[9]; [31],< 0.125 µg/mL
same,MIC,[10],1 µg/mL
same,MIC,[11],< 0.125 µg/mL
same,MIC,[12],0.25 µg/mL
same,MIC,Clostridium ramosum 1313; [26],0.5 µg/mL
same,MIC,[13],0.5 µg/mL
same,MIC,[14]; Bacteroides fragilis,< 0.125 µg/mL
same,MIC,[15],< 0.125 µg/mL
same,MIC,[16]; Bacteroides fragilis,< 0.125 µg/mL
same,MIC,[17],8 µg/mL
"CCn1nc(-c2ncc([N+](=O)[O-])n2C)c(C#N)c1N [Compound 16, 5-Amino-1-ethyl-3-(1-methyl-5-nitro-2-imidazolyl)pyrazole-4-carbonitrile]",MIC,"[1]; Fusobacterium, 1470, 24 h",< 0.125 µg/mL
same,MIC,"[2]; Cutibacterium acnes, 79, 24 h",< 0.125 µg/mL
same,MIC,[3]; Bacteroides fragilis,< 0.125 µg/mL
same,MIC,[4]; [29],< 0.125 µg/mL
same,MIC,"Actinomyces bovis 13684; Actinomyces bovis, 13684, 24 h",< 0.125 µg/mL
same,MIC,[5]; Bacteroides fragilis,< 0.125 µg/mL
same,MIC,"[6]; Veillonella parvula, 1, 24 h",< 0.125 µg/mL
same,MIC,[7],> 32 µg/mL
same,MIC,[8]; [30],< 0.125 µg/mL
same,MIC,[9]; [31],< 0.125 µg/mL
same,MIC,[10],1 µg/mL
same,MIC,[11],< 0.125 µg/mL
same,MIC,[12],< 0.125 µg/mL
same,MIC,"Clostridium ramosum 1313; Thomasclavelia ramosa, 1313, 24 h",< 0.125 µg/mL
same,MIC,[13],0.25 µg/mL
same,MIC,[14]; Bacteroides fragilis,< 0.125 µg/mL
same,MIC,[15],< 0.125 µg/mL
same,MIC,[16]; Bacteroides fragilis,< 0.125 µg/mL
same,MIC,[17],2 µg/mL
CN(C)S(=O)(=O)Nc1c(C#N)c(-c2ncc([N+](=O)[O-])n2C)nn1C [Compound 20],MIC,[1]; [18],4 µg/mL
same,MIC,[2]; [19],1 µg/mL
same,MIC,[3]; [20],4 µg/mL
same,MIC,[4]; [21],16 µg/mL
same,MIC,"Actinomyces bovis 13684; 24 h, Actinomyces bovis 13684",2 µg/mL
same,MIC,[5]; [22],4 µg/mL
same,MIC,[6]; [23],1 µg/mL
same,MIC,[7],> 32 µg/mL
same,MIC,[8]; [24],1 µg/mL
same,MIC,[9]; [25],8 µg/mL
same,MIC,[10],1 µg/mL
same,MIC,[11],8 µg/mL
same,MIC,[12],8 µg/mL
same,MIC,Clostridium ramosum 1313; [26],4 µg/mL
same,MIC,[13],2 µg/mL
same,MIC,[14]; [27],2 µg/mL
same,MIC,[15],8 µg/mL
same,MIC,[16]; [28],1 µg/mL
same,MIC,[17],32 µg/mL
